One data set has as its target T1, APJ receptor (Homo sapiens, UniProt P35414).
T1 construct: expressed in transfected cells; host or cells: Human TRex cells (doxycycline-inducible)
T1 sequence (P35414 1-380): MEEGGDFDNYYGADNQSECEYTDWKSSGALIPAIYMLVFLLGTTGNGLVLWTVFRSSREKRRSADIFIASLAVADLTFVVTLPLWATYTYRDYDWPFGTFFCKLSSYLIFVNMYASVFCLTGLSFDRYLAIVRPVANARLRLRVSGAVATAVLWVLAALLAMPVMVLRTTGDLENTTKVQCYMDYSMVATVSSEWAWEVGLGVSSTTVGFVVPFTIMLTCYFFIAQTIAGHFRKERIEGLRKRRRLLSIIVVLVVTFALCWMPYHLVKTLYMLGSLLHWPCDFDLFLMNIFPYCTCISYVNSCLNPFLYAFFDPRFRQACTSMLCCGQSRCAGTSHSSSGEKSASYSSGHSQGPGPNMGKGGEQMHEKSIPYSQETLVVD
Briefly: HTRF cAMP assay, inhibition of NKH477 stimulated cAMP in Human TRex cells expressing APJ upon doxycycline induction (APJ-hTREX). The data set is classed as cell-based. The following applies: for Ranking: class combining EC50 and % histamine; for percent intrinsic activity at 0.3 µM: read-out: % IA (@ 300 nM). The method in brief:
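Cells stimulated with NKH477 and cAMP measured by HTRF competitive immunoassay (cryptate anti-cAMP antibody, d2-labeled cAMP). APJ-hTREX cells induced with […] doxycycline and seeded overnight at 40 k/well.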

Setting [1] is: inhibition of NKH477 stimulated cAMP, APJ-hTREX cells, read-out: APJ-hTREX EC50.

Read-outs that look alike come from different tables or passages of the source. Where a SMILES comes first, the peptide text is derived from it. [ ]: non-standard residue; d: D form. The star is where a group is joined. Palmitoyl = CCCCCCCCCCCCCCCC(=O)*; Aib = CC(C)(N)C(=O)O

With `CCCCCCCCCCCCCCCC(=O)N[C@H](C(=O)N[C@H](C(=O)N[C@@H](Cc1ccccc1)C(=O)N[C@@H](CCCNC(=N)N)C(=O)N[C@@H](CO)C(=O)N[C@@H](CO)C(=O)N[C@@H](CCC(=O)O)C(=O)N[C@H](CCCCN)C(=O)N[C@@H](CCCNC(=N)N)C(=O)N[C@@H](CCCNC(=N)N)C(=O)N[C@@H](CC(=O)O)C(=O)N[C@@H](C)C(=O)N[C@@H](CC(=O)O)C(=O)N[C@H](C(=O)N[C@@H](Cc1ccccc1)C(=O)N[C@H](C(N)=O)[C@@H](C)CC)[C@@H](C)CC)C(C)C)[C@@H](C)O` [Compound 38] (Palmitoyl-TVFRSSE[dK]RRDADIFI-NH2; C-terminus assumed), at APJ receptor, the Ranking result was “* (EC50>500 nM and % histamine>35%)”; the percent intrinsic activity at 0.3 µM stood at 46%. For the same molecule, the EC50 on APJ receptor (setting [1]) came out at 732 nM. In addition, the “Histimine (% vs. 48/40)” value in “Histimine (% vs. 48/40)” is 13%.
As for `CCCCCCCCCCCCCCCC(=O)N[C@H](C(=O)N[C@H](C(=O)N[C@@H](Cc1ccccc1)C(=O)N[C@@H](CCCNC(=N)N)C(=O)N[C@@H](CO)C(=O)N[C@@H](CO)C(=O)N[C@@H](CCC(=O)O)C(=O)N[C@H](CCCCN)C(=O)N[C@@H](CCCNC(=N)N)C(=O)N[C@@H](CCCNC(=N)N)C(=O)N[C@@H](CO)C(=O)N[C@@H](C)C(=O)NCC(=O)N[C@H](C(=O)N[C@@H](Cc1ccccc1)C(=O)N[C@H](C(N)=O)[C@@H](C)CC)[C@@H](C)CC)C(C)C)[C@@H](C)O` [Compound 78] (Palmitoyl-TVFRSSE[dK]RRSAGIFI-NH2), the percent intrinsic activity at 0.3 µM on APJ receptor is 60%. For the same molecule, the “Histimine (% vs. 48/40)” value in “Histimine (% vs. 48/40)” worked out at 62%.
As to `CCCCCCCCCCCCCCCC(=O)N[C@H](C(=O)N[C@H](C(=O)N[C@@H](Cc1ccccc1)C(=O)N[C@@H](CCCNC(=N)N)C(=O)N[C@@H](CO)C(=O)N[C@@H](CO)C(=O)N[C@@H](CCC(=O)O)C(=O)N[C@H](CCCCN)C(=O)N[C@@H](CCC(N)=O)C(=O)N[C@@H](CCCNC(=N)N)C(=O)N[C@@H](CO)C(=O)N[C@@H](C)C(=O)N[C@@H](CC(=O)O)C(=O)N[C@H](C(=O)N[C@@H](Cc1ccccc1)C(=O)N[C@H](C(N)=O)[C@@H](C)CC)[C@@H](C)CC)C(C)C)[C@@H](C)O` [Compound 26] (Palmitoyl-TVFRSSE[dK]QRSADIFI-NH2; C-terminus assumed), on APJ receptor, the EC50 amounted to 112 nM; the Ranking entry is “**** (EC50 101-500 nM and % histamine<35%)”; the percent intrinsic activity at 0.3 µM was determined as 6%. Also, the “Histimine (% vs. 48/40)” value in the data set “Histimine (% vs. 48/40)” is on record as −1%.
Turning to `CCCCCCCCCCCCCCCC(=O)N[C@H](C(=O)N[C@H](C(=O)N[C@@H](Cc1ccccc1)C(=O)N[C@@H](CCCNC(=N)N)C(=O)N[C@@H](CO)C(=O)N[C@@H](CO)C(=O)N[C@@H](CCC(=O)O)C(=O)N[C@H](CCCCN)C(=O)N[C@@H](CCCNC(=N)N)C(=O)N[C@@H](CCCNC(=N)N)C(=O)N[C@@H](CO)C(=O)N[C@@H](C)C(=O)N[C@@H](CC(=O)O)C(=O)N[C@H](C(=O)NC(C)(C)C(=O)N[C@H](C(N)=O)[C@@H](C)CC)[C@@H](C)CC)C(C)C)[C@@H](C)O` [Compound 66] (Palmitoyl-TVFRSSE[dK]RRSADI[Aib]I-NH2; C-terminus assumed), at APJ receptor, the Ranking result was “**** (EC50 101-500 nM and % histamine<35%)”; the percent intrinsic activity at 0.3 µM came to 47%. Also, at APJ receptor (setting [1]), the EC50 is 173 nM. The “Histimine (% vs. 48/40)” value in “Histimine (% vs. 48/40)” amounted to 19%.
With `CCCCCCCCCCCCCCCC(=O)N[C@H](C(=O)N[C@H](C(=O)N[C@@H](Cc1ccccc1)C(=O)N[C@@H](CCCNC(=N)N)C(=O)N[C@@H](CO)C(=O)N[C@@H](CO)C(=O)N[C@@H](CCC(=O)O)C(=O)N[C@H](CCCCN)C(=O)N[C@@H](CCCNC(=N)N)C(=O)N[C@@H](CCCNC(=N)N)C(=O)N[C@@H](CO)C(=O)NC(C)(C)C(=O)N[C@@H](CC(=O)O)C(=O)N[C@H](C(=O)N[C@@H](Cc1ccccc1)C(=O)N[C@H](C(N)=O)[C@@H](C)CC)[C@@H](C)CC)C(C)C)[C@@H](C)O` [Compound 64, TVFRSSEkRRS(Aib)DIFI] (Palmitoyl-TVFRSSE[dK]RRS[Aib]DIFI-NH2), the percent intrinsic activity at 0.3 µM at APJ receptor is 60%. Further, the “Histimine (% vs. 48/40)” value in the data set “Histimine (% vs. 48/40)” came to 105%.
On the same counts, the results for `CCCCCCCCCCCCCCCC(=O)N[C@H](C(=O)N[C@H](C(=O)N[C@@H](Cc1ccccc1)C(=O)N[C@@H](CCCNC(=N)N)C(=O)N[C@@H](CO)C(=O)N[C@@H](CO)C(=O)N[C@@H](CCC(=O)O)C(=O)N[C@H](CCCCN)C(=O)N[C@@H](CCCNC(=N)N)C(=O)N[C@@H](CCCNC(=N)N)C(=O)N[C@@H](CO)C(=O)N[C@@H](C)C(=O)N[C@@H](CC(=O)O)C(=O)N[C@H](C(=O)N[C@@H](Cc1ccccc1)C(=O)N[C@@H](CCC(N)=O)C(N)=O)[C@@H](C)CC)C(C)C)[C@@H](C)O` [Compound 32] (Palmitoyl-TVFRSSE[dK]RRSADIFQ-NH2) are 55% and 69%.
For the molecule `CCCCCCCCCCCCCCCC(=O)N[C@H](C(=O)N[C@H](C(=O)N[C@@H](Cc1ccccc1)C(=O)N[C@@H](CCCNC(=N)N)C(=O)N[C@@H](CO)C(=O)N[C@@H](CO)C(=O)N[C@@H](CCC(=O)O)C(=O)N[C@H](CCCCN)C(=O)N[C@@H](CCCNC(=N)N)C(=O)N[C@@H](CCCNC(=N)N)C(=O)N[C@@H](CO)C(=O)N[C@@H](C)C(=O)N[C@@H](CC(=O)O)C(=O)N[C@@H](CC(=O)O)C(=O)N[C@@H](Cc1ccccc1)C(=O)N[C@H](C(N)=O)[C@@H](C)CC)C(C)C)[C@@H](C)O` [Compound 40] (Palmitoyl-TVFRSSE[dK]RRSADDFI-NH2; C-terminus assumed), on APJ receptor, the Ranking result was “*** (EC50<100 nM and % histamine>35%)”; the percent intrinsic activity at 0.3 µM was found to be 71%. In addition, the concentration for a half-maximal effect (EC50) at APJ receptor (setting [1]) came to 48.2 nM. The “Histimine (% vs. 48/40)” value in “Histimine (% vs. 48/40)” turned out to be 46%.
As to `CCCCCCCCCCCCCCCC(=O)N[C@H](C(=O)N[C@H](C(=O)N[C@@H](Cc1ccccc1)C(=O)N[C@@H](CCCNC(=N)N)C(=O)N[C@@H](CO)C(=O)N[C@@H](CO)C(=O)N[C@@H](CCC(=O)O)C(=O)N[C@H](CCCCN)C(=O)N[C@@H](CCCNC(=N)N)C(=O)N[C@@H](CCCNC(=N)N)C(=O)N[C@@H](CO)C(=O)N[C@@H](C)C(=O)NC(C)(C)C(=O)N[C@H](C(=O)N[C@@H](Cc1ccccc1)C(=O)N[C@H](C(N)=O)[C@@H](C)CC)[C@@H](C)CC)C(C)C)[C@@H](C)O` [Compound 65, TVFRSSEkRRSA(Aib)IFI] (Palmitoyl-TVFRSSE[dK]RRSA[Aib]IFI-NH2), the percent intrinsic activity at 0.3 µM on APJ receptor is 45%. Also, the “Histimine (% vs. 48/40)” value in the data set “Histimine (% vs. 48/40)” is reported as 100%.
On to `CCCCCCCCCCCCCCCC(=O)N[C@H](C(=O)N[C@H](C(=O)N[C@@H](Cc1ccccc1)C(=O)N[C@@H](CCCNC(=N)N)C(=O)N[C@@H](CO)C(=O)N[C@@H](CO)C(=O)N[C@@H](CCC(=O)O)C(=O)N[C@H](CCCCN)C(=O)N[C@@H](CCCNC(=N)N)C(=O)N[C@@H](CCCNC(=N)N)C(=O)N[C@@H](CO)C(=O)N[C@@H](C)C(=O)N[C@@H](CC(=O)O)C(=O)N[C@H](C(=O)N1CCC[C@H]1C(=O)N[C@H](C(N)=O)[C@@H](C)CC)[C@@H](C)CC)C(C)C)[C@@H](C)O` [Compound 55] (Palmitoyl-TVFRSSE[dK]RRSADIPI-NH2), for which the percent intrinsic activity at 0.3 µM on APJ receptor turned out to be 43%. Further, the “Histimine (% vs. 48/40)” value in the data set “Histimine (% vs. 48/40)” is 33%.
As for `CCCCCCCCCCCCCCCC(=O)N[C@H](C(=O)N[C@H](C(=O)N[C@@H](Cc1ccccc1)C(=O)NCC(=O)N[C@@H](CO)C(=O)N[C@@H](CO)C(=O)N[C@@H](CCC(=O)O)C(=O)N[C@H](CCCCN)C(=O)N[C@@H](CCCNC(=N)N)C(=O)N[C@@H](CCCNC(=N)N)C(=O)N[C@@H](CO)C(=O)N[C@@H](C)C(=O)N[C@@H](CC(=O)O)C(=O)N[C@H](C(=O)N[C@@H](Cc1ccccc1)C(=O)N[C@H](C(N)=O)[C@@H](C)CC)[C@@H](C)CC)C(C)C)[C@@H](C)O` [Compound 71] (Palmitoyl-TVFGSSE[dK]RRSADIFI-NH2; C-terminus assumed), on APJ receptor, the EC50 is 111 nM; the Ranking result is “**** (EC50 101-500 nM and % histamine<35%)”; the percent intrinsic activity at 0.3 µM stood at 65%. Also, in the data set “Histimine (% vs. 48/40)”, the “Histimine (% vs. 48/40)” value was 6%.
Consider `CCCCCCCCCCCCCCCC(=O)N[C@H](C(=O)N[C@H](C(=O)N[C@@H](Cc1ccccc1)C(=O)N[C@@H](CCCNC(=N)N)C(=O)N[C@@H](CO)C(=O)N[C@@H](CO)C(=O)N[C@@H](CCC(=O)O)C(=O)NC(C)(C)C(=O)N[C@@H](CCCNC(=N)N)C(=O)N[C@@H](CCCNC(=N)N)C(=O)N[C@@H](CO)C(=O)N[C@@H](C)C(=O)N[C@@H](CC(=O)O)C(=O)N[C@H](C(=O)N[C@@H](Cc1ccccc1)C(=O)N[C@H](C(N)=O)[C@@H](C)CC)[C@@H](C)CC)C(C)C)[C@@H](C)O` [Compound 60] (Palmitoyl-TVFRSSE[Aib]RRSADIFI-NH2; C-terminus assumed), for which, at APJ receptor, the EC50 was determined as 167 nM; the Ranking result is “**** (EC50 101-500 nM and % histamine<35%)”; the percent intrinsic activity at 0.3 µM came to 65%. In the data set “Histimine (% vs. 48/40)”, the “Histimine (% vs. 48/40)” value came out at 26%.

In general, EC50 refers to the concentration needed to bring the measured effect to its halfway point.

These data come from patent US20150011466A1, “APJ Receptor Compounds” (priority 2012, published 2015).
